# US20200345021A1, “METHOD AND SYSTEM FOR ENHANCING THE EFFICACY USING IONIZED/A[…] PEROXIDE IN REDUCING MICROBIAL POPULATIONS, METHOD OF USE THEREOF” (priority 2019, published 2020)
# Where “and” joins values, the source holds several entries; their conditions need not be identical. Equal entries are not always repeated. Where two headings read alike, the source gives them in different places. Marks after values point to notes of the source that are not given here.
# Key:
# Salmonella Typhimurium = format: cell-based
# Source text: (§1) To minimize the risk of possible bacteria becoming airborne during treatments, attenuated and non-pathogenic bacteria were used in the study. Two strains of non-pathogenic S. Typhimurium (ATCC 53647 and 53648) and three strains of L. innocua (ATCC 33090, ATCC 51742 and ATCC BAA680) were obtained from American Type Culture Collection (ATCC) (Manassas, Va., USA). Further studies used E. coli O157:H7 (ATCC 700728), S. Typhimurium (ATCC 53647 and 53648), and L. innocua (ATCC 33090) obtained from American Type Culture Collection (ATCC) (Manassas, Va., USA) and maintained as a part of the culture collection at the USDA Eastern Regional Research Center (Wyndmoor, Pa. USA). The bacteria were made to be resistant to nalidixic acid by successive growth in Trypic Soy Broth (TSB) (Difco, Sparks, Md., USA) with increasing nalidixic acid concentrations. All strains were stored at −80° C. in 1 mL of TSB containing 10% glycerol. Working cultures of S. Typhimurium and L. innocua were maintained in 9 mL TSB (supplemented with 100 μg/mL nalidixic acid for S. Typhimurium) at 4° C. after incubating at 37° C. for […], respectively, and sub-cultured each time.
# (§2) Each strain of S. Typhimurium and L. innocua was cultured in 9 mL TSB (supplemented with 100 μg/mL nalidixic acid for S. Typhimurium) and incubated at 37° C. for 40 h and 48 h, respectively, harvested by centrifugation at 4000×g for 10 min at 4° C., and resuspended in 9 mL sterile Buffered Peptone Water (BPW; Difco). The pellets were resuspended in BPW to form cell suspensions with a final concentration of 108˜10^9 CFU/mL. Subsequently, suspended pellets of two strains of Salmonella and three strains of L. innocua were combined to obtain two separate culture cocktails.
# (§3) Grape tomatoes, granny smith apples, romaine lettuce and cantaloupes were purchased from local markets (Philadelphia, Pa., USA) and kept at 10° C. prior to use. Fruits and vegetables were removed from 10° C. refrigeration and equilibrated to ambient temperature before being inoculated. Romaine lettuce was divided into upper green leaf and midrib tissues. Six tomatoes, six pieces (2×2 cm) of apple skins, five pieces (3×3 cm) of Romaine lettuce upper leaves, five pieces (3 cm length) of Romaine lettuce midrib area and six pieces (2×2 cm) of cantaloupe rinds with 2×3 mm thickness of flesh were used for each treatment per replicate. Bach piece w as spot inoculated with 10 μL of Salmonella and L. innocua by depositing droplets with a micropipette. The inoculated samples were dried in a bio-hood for 1 h (for tomato surfaces, romaine lettuce, apple skins and cantaloupe rinds) or 2 h (for tomato stem scars) at ambient temperature.
# (§4) Produce items were placed onto a sterile test tube rack with the inoculated area facing up and the rack with produce pieces were placed inside of a treatment chamber (12×12×24 inch).
# (§5) Therefore, each kind of produce was treated with and without cold plasma ionized under the same optimized conditions.
# (§6) After each treatment, the tomato stem scars and surfaces with the inoculated bacteria were removed using a pair of sterile scissors. Each type of produce item from the same treatment was combined (total weight: 1.51±0.29 g for tomato stem scars; 2.07±0.15 g for tomato surfaces; 6.37±0.92 g for apple skins; 1.62±0.34 g for Romaine lettuce upper leaves: 13.30±2.97 g for Romaine lettuce midrib tissues: 9.58±1.26 g for cantaloupe rinds) and transferred into an 80 mL filtered stomacher bag. After addition of 30 mL BBL buffered peptone water into the bag, the sample in the bag was homogenized using a mini blender (Mini Mix CC, Interscience laboratories Inc., Woburn, Mass., USA) for 2 min at a setting of 4. […] Tryptic Soy Agar with 200 μg/mL pyruvate acid and 100 μg/mL nalidixic acid (TSA-PN) and PALCAM Agars (Difco) were used for the enumeration of S. Typhimurium and L. innocua, respectively.
# Listeria innocua = assay: Effect of cold plasma activation on efficacy of ionized/aerosolized H2O2 against Listeria innocua (Study 2); format: cell-based
# Source text: as §1, §2, §3, §4, §5, §6
# [1] = Cantaloupe rind, 30 s spray time + 30 min dwell
# [2] = Romaine lettuce-midrib, 30 s spray time + 30 min dwell
# [3] = Romaine lettuce-upper leaf, 30 s spray time + 30 min dwell
# [4] = Tomato-stem scar, three cycles of 20 s spray time plus 20 min dwell time
# [5] = Tomato-surface, 8 s spray time + 30 min dwell
structure (smiles),measurement,setting,value
"OO [H2O2 − cold plasma, hydrogen peroxide]",Populations of Salmonella Typhimurium,Salmonella Typhimurium; [1],4.83 ± 0.36^b log CFU/piece
same,Reductions of Salmonella Typhimurium,Salmonella Typhimurium; [1],1.54 ± 0.36^y log CFU/piece
same,Reductions of Salmonella Typhimurium,"Salmonella Typhimurium; Granny Smith apples, 8 s spray time + 30 min dwell",2.08 ± 0.17^y log CFU/piece
same,Populations of Salmonella Typhimurium,"Salmonella Typhimurium; Granny Smith apples, 8 s spray time + 30 min dwell, ND: not detectable (detection limit 0.70 log CFU/piece)",3.77 ± 0.17^b log CFU/piece
same,Reductions of Salmonella Typhimurium,"Salmonella Typhimurium; Granny Smith apples, 8 s spray time + 30 min dwell, listed as hydrogen peroxide (H2O2) aerosols without cold plasma",2.08 log CFU/piece
same,Populations of Salmonella Typhimurium,Salmonella Typhimurium; [2],4.16 ± 0.28^b log CFU/piece
same,Reductions of Salmonella Typhimurium,Salmonella Typhimurium; [2],1.78 ± 0.28^y log CFU/piece
same,Populations of Salmonella Typhimurium,Salmonella Typhimurium; [3],4.70 ± 0.23^b log CFU/piece
same,Reductions of Salmonella Typhimurium,Salmonella Typhimurium; [3],1.72 ± 0.23^y log CFU/piece
same,Populations of Salmonella Typhimurium,Salmonella Typhimurium; [4],4.40 ± 0.28^b log CFU/piece
same,Reductions of Salmonella Typhimurium,Salmonella Typhimurium; [4],1.54 ± 0.28^y log CFU/piece
same,Reductions of Salmonella Typhimurium,Salmonella Typhimurium; [5],3.17 ± 0.33^y log CFU/piece
same,Populations of Salmonella Typhimurium,"Salmonella Typhimurium; Tomato-surface, 8 s spray time + 30 min dwell, ND: not detectable (detection limit 0.70 log CFU/piece)",2.46 ± 0.33^b log CFU/piece
same,Reductions of Salmonella Typhimurium,"Salmonella Typhimurium; Tomato-surface, 8 s spray time + 30 min dwell, listed as hydrogen peroxide (H2O2) aerosols without cold plasma",3.17 log CFU/piece
same,"Reductions of Salmonella, range over the fresh produce items","Salmonella Typhimurium; all tested produce items and surfaces, optimized conditions, listed as hydrogen peroxide (H2O2) aerosols without cold plasma",1.54-3.17 log CFU/piece and 1.53-3.17 log CFU/piece
same,Reductions of Listeria innocua,Listeria innocua; [1],1.57 ± 0.37^y log CFU/piece
same,Populations of Listeria innocua,"Listeria innocua; Cantaloupe rind, 30 s spray time + 30 min dwell, ND1: not detectable (detection limit 0.70 log CFU/piece)",3.88 ± 0.37^b log CFU/piece
same,Reductions of Listeria innocua,"Listeria innocua; Granny Smith apple, 8 s spray time + 30 min dwell",2.69 ± 0.20^y log CFU/piece
same,Populations of Listeria innocua,"Listeria innocua; Granny Smith apple, 8 s spray time + 30 min dwell, ND1: not detectable (detection limit 0.70 log CFU/piece)",2.90 ± 0.20^b log CFU/piece
same,Reductions of Listeria innocua,Listeria innocua; [2],3.77 ± 0.35^y log CFU/piece
same,Populations of Listeria innocua,"Listeria innocua; Romaine lettuce-midrib, 30 s spray time + 30 min dwell, ND2: not detectable (detection limit 0.76 log CFU/piece)",1.82 ± 0.35^b log CFU/piece
same,Reductions of Listeria innocua,"Listeria innocua; Romaine lettuce-midrib, 30 s spray time + 30 min dwell, listed as hydrogen peroxide (H2O2) aerosols without cold plasma",3.77 log CFU/piece
same,Reductions of Listeria innocua,Listeria innocua; [3],2.77 ± 0.34^y log CFU/piece
same,Populations of Listeria innocua,"Listeria innocua; Romaine lettuce-upper leaf, 30 s spray time + 30 min dwell, ND2: not detectable (detection limit 0.76 log CFU/piece)",2.80 ± 0.34^b log CFU/piece
same,Populations of Listeria innocua,Listeria innocua; [4],4.21 ± 0.60^b log CFU/piece
same,Reductions of Listeria innocua,Listeria innocua; [4],1.35 ± 0.60^y log CFU/piece
same,Reductions of Listeria innocua,"Listeria innocua; Tomato-stem scar, three cycles of 20 s spray time plus 20 min dwell time, listed as hydrogen peroxide (H2O2) aerosols without cold plasma",1.35 log CFU/piece
same,Reductions of Listeria innocua,Listeria innocua; [5],2.74 ± 0.21^y log CFU/piece
same,Populations of Listeria innocua,"Listeria innocua; Tomato-surface, 8 s spray time + 30 min dwell, ND1: not detectable (detection limit 0.70 log CFU/piece)",2.77 ± 0.21^b log CFU/piece
